Results as given in patent US12077483B2, “Modified amine lipids” (Intellia Therapeutics, Inc., priority 2018, dated 2024).
Several values for one entry are separate records, joined by “and”; a condition that tells them apart may be missing. Equal entries are not always repeated.

Key:
[1] = RNA encapsulation efficiency of LNP (Ribogreen fluorescence assay); type: physicochemical; conditions: LNP with the compound as amine lipid
Experimental: A fluorescence-based assay (Ribogreen®, ThermoFisher Scientific) is used to determine total RNA concentration and free RNA. Encapsulation efficiency is calculated as (Total RNA—Free RNA)/Total RNA. LNP samples are diluted appropriately with 1× TE buffer containing 0.2% Triton-X 100 to determine total RNA or 1× TE buffer to determine free RNA. Standard curves are prepared by utilizing the starting RNA solution used to make the compositions and diluted in 1× TE buffer+/−0.2% Triton-X 100. Diluted RiboGreen® dye (according to the manufacturer's instructions) is then added to each of the standards and samples and allowed to incubate for approximately 10 minutes at room temperature, in the absence of light. A SpectraMax M5 Microplate Reader (Molecular Devices) is used to read the samples with excitation, auto cutoff and emission wavelengths set to 488 nm, 515 nm, and 525 nm respectively. Total RNA and free RNA are determined from the appropriate standard curves.
Encapsulation efficiency is calculated as (Total RNA−Free RNA)/Total RNA. The same procedure may be used for determining the encapsulation efficiency of a DNA-based cargo component. For single-strand DNA, Oligreen Dye may be used and for double-strand DNA, Picogreen Dye.

mouse TTR = assay: Serum TTR ELISA in mice after LNP delivery; type: in vivo; conditions: mouse serum, relative to TSS control of same experiment
Method in brief: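 Mouse TTR in serum was quantified by ELISA (samples diluted e.g. 10,000- and/or 2,500-fold) 6–7 days after dosing CD-1 females with LNP, typically 0.1 mpk. Values are reported relative to vehicle-treated controls (%).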

[2] = pKa of amine lipid by TNS fluorescence; type: physicochemical; conditions: probe TNS (6-(p-toluidino)-2-naphthalenesulfonic acid sodium salt), unformulated amine lipid in ethanol, sodium phosphate buffers -9.0
Method in brief: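 pKa derived from a sigmoidal fit of normalized TNS fluorescence (321 nm excitation, 448 nm emission) versus pH. Lipid from ethanol stock diluted to about 100 μM final in 0.1 M phosphate buffers, pH 4.5–9.0.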

[3] = LNP average particle size and polydispersity by dynamic light scattering; type: physicochemical; conditions: LNP with the compound as amine lipid
Excerpt: The LNPs have a size of about 1 to about 1,000 nm, about 10 to about 500 nm, about 20 to about 500 nm, in a sub-embodiment about 50 to about 400 nm, in a sub-embodiment about 50 to about 300 nm, in a sub-embodiment about 50 to about 200 nm, and in a sub-embodiment about 50 to about 150 nm, and in another sub-embodiment about 60 to about 120 nm. Preferably, the LNPs have a size from about 60 nm to about 100 nm. The average sizes (diameters) of the fully formed LNP, may be measured by dynamic light scattering on a Malvern Zetasizer. The LNP sample is diluted in phosphate buffered saline (PBS) so that the count rate is approximately 200-400 kcps. The data is presented as a weighted average of the intensity measure.
In some embodiments, the LNPs have a size of about 75 to about 120 nm. In some embodiments, the LNPs have a size of about 75 to about 100 nm. Unless indicated otherwise, all sizes referred to herein are the average sizes (diameters) of the fully formed nanoparticles, as measured by dynamic light scattering on a Malvern Zetasizer. The nanoparticle sample is diluted in phosphate buffered saline (PBS) so that the count rate is approximately 200-400 kcps. The data is presented as a weighted-average of the intensity measure (Z-average diameter).
Dynamic Light Scattering (“DLS”) is used to characterize the polydispersity index (“pdi”) and size of the LNPs of the present disclosure. DLS measures the scattering of light that results from subjecting a sample to a light source. PDI, as determined from DLS measurements, represents the distribution of particle size (around the mean particle size) in a population, with a perfectly uniform population having a PDI of zero. Electropheretic light scattering is used to characterize the surface charge of the LNP at a specified pH. The surface charge, or the zeta potential, is a measure of the magnitude of electrostatic repulsion/attraction between particles in the LNP suspension. Asymmetric-Flow Field Flow Fractionation—Multi-Angle Light Scattering (AF4-MALS) is used to separate particles in the composition by hydrodynamic radius and then measure the molecular weights, hydrodynamic radii and root mean square radii of the fractionated particles. […] Nanoparticle tracking analysis (NTA, Malvern Nanosight) can be used to determine particle size distribution as well as particle concentration. LNP samples are diluted appropriately and injected onto a microscope slide. A camera records the scattered light as the particles are slowly infused through field of view. After the movie is captured, the Nanoparticle Tracking Analysis processes the movie by tracking pixels and calculating a diffusion coefficient. This diffusion coefficient can be translated into the hydrodynamic radius of the particle. The instrument also counts the number of individual particles counted in the analysis to give particle concentration.
LNP compositions are analyzed for average particle size, polydispersity index (pdi), total RNA content, encapsulation efficiency of RNA, and zeta potential. LNP compositions may be further characterized by lipid analysis, AF4-MALS, NTA, and/or cryo-EM. Average particle size and polydispersity are measured by dynamic light scattering (DLS) using a Malvern Zetasizer DLS instrument. LNP samples were diluted with PBS buffer prior to being measured by DLS. Z-average diameter which is an intensity-based measurement of average particle size was reported along with number average diameter and pdi. A Malvern Zetasizer instrument is also used to measure the zeta potential of the LNP. Samples are diluted 1:17 (50 μL into 800 μL) in 0.1×PBS, pH 7.4 prior to measurement.

[4] = Expt. 9, composition ratio (mol %) 50/9/38/3 for Cmpnd 49, 50/10/38.5/1.5 for the others
[5] = Expt. 8, composition ratio (mol %) 50/9/38/3 for Cmpnd 49, 50/10/38.5/1.5 for the others
[6] = Expt. 6, composition ratio (mol %) 50/9/38/3 for Cmpnd 49, 50/10/38.5/1.5 for the others
[7] = Expt. 1, composition ratio (mol %) 50/9/38/3 for Cmpnd 49, 50/10/38.5/1.5 for the others
[8] = Expt. 2, composition ratio (mol %) 50/9/39.5/3 for Cmpnd 49, 50/9/39.5/1.5 for the others
[9] = Expt. 4, composition ratio (mol %) 50/9/38/3 for Cmpnd 49, 50/10/38.5/1.5 for the others
[10] = Expt. 5, composition ratio (mol %) 50/10/38.5/1.5

Structure (SMILES) | Encapsulation (%) [1, 4] [%] | pKa [2] | Num Ave Size (nm) [3, 4] [nm] | PDI [3, 4] | Z-Ave Size (nm) [3, 4] [nm] | Serum TTR % TSS (mouse TTR; dose 0.03 mpk) [% TSS] | Serum TTR % TSS (mouse TTR; dose 0.1 mpk) [% TSS] | other results
CCCCC/C=C\C/C=C\CCCCCCCC(=O)OCC(COC(=O)CCCCCCC/C=C\C/C=C\CCCCC)OC(=O)CCC(CC(CC)CC)OC(=O)NCCN1CCCC1 (centres unmarked) [Compound 106, 2-((6-ethyl-4-(((2-(pyrrolidin-1-yl)ethyl)carbamoyl)oxy)octanoyl)oxy)propane-1,3-diyl (9Z,9′Z,12Z,12′Z)-bis(octadeca-9,12-dienoate)] | 99 | 6.8 | 74 | 0.01 | 91 |  |  | Serum TTR % TSS (mouse TTR; dose 0.03 mpk, 0.03 mg/kg): 82.47 % TSS and 88.7 % TSS
CCCCC/C=C\C/C=C\CCCCCCCC(=O)OCC(COC(=O)CCCCCCC/C=C\C/C=C\CCCCC)OC(=O)CCC(CC/C=C\CCCCC)OC(=O)NCCN1CCCC1 (centres unmarked) [Compound 108, 2-(((Z)-4-(((2-(pyrrolidin-1-yl)ethyl)carbamoyl)oxy)tridec-7-enoyl)oxy)propane-1,3-diyl (9Z,9′Z,12Z,12′Z)-bis(octadeca-9,12-dienoate)] | 99 | 6.52 | 73 | 0.03 | 89 | 57.12 |  | 
CCCCC/C=C\C/C=C\CCCCCCCC(=O)OCC(COC(=O)CCCCCCC/C=C\C/C=C\CCCCC)OC(=O)CCC(CCCCC)OC(=O)NCC1CCCN1C (centres unmarked) [Compound 70, 2-((4-((((1-methylpyrrolidin-2-yl)methyl)carbamoyl)oxy)nonanoyl)oxy)propane-1,3-diyl (9Z,9′Z,12Z,12′Z)-bis(octadeca-9,12-dienoate)] |  | 6.61 |  |  |  | 126.29 | 87.49 | Encapsulation (%) [1, 5]: 99%; Num Ave Size (nm) [3, 5]: 102 nm; PDI [3, 5]: 0.018; Z-Ave Size (nm) [3, 5]: 124.2 nm
CCCCC/C=C\C/C=C\CCCCCCCC(=O)OCC(COC(=O)CCCCCCC/C=C\C/C=C\CCCCC)OC(=O)C1(C(CCCCCCCC)OC(=O)NCCN(C)CC)CC1 (centres unmarked) [Compound 86, 2-((1-(1-(((2-(ethyl(methyl)amino)ethyl)carbamoyl)oxy)nonyl)cyclopropane-1-carbonyl)oxy)propane-1,3-diyl (9Z,9′Z,12Z,12′Z)-bis(octadeca-9,12-dienoate)] |  | 6.23 |  |  |  | 93.10 | 28.80 | Encapsulation (%) [1, 6]: 98%; Num Ave Size (nm) [3, 6]: 68 nm; PDI [3, 6]: 0.04; Z-Ave Size (nm) [3, 6]: 87.00 nm
CCCCC/C=C\C/C=C\CCCCCCCC(=O)OCC(COC(=O)CCCCCCCC(=O)OCCCCCCCCCCC)OC(=O)CCCC(CCCCCCCC)OC(=O)NCCN(C)CC (centres unmarked) [Compound 64, 1-(3-methyl-15-((((9Z,12Z)-octadeca-9,12-dienoyl)oxy)methyl)-9-octyl-7,13-dioxo-8,14-dioxa-3,6-diazahexadecan-16-yl) 9-undecyl nonanedioate] |  | 6.3 |  |  |  |  | 85.39 | Encapsulation (%) [1, 7]: 97%; Num Ave Size (nm) [3, 7]: 86.19 nm; PDI [3, 7]: 0.02; Z-Ave Size (nm) [3, 7]: 106.40 nm
CCCCC/C=C\C/C=C\CCCCCCCC(=O)OCC(COC(=O)CCCCCCC/C=C\C/C=C\CCCCC)OC(=O)CCC(CCCC)OC(=O)OCCCN1CCCC1 (centres unmarked) [Compound 68, 2-((4-(((3-(pyrrolidin-1-yl)propoxy)carbonyl)oxy)octanoyl)oxy)propane-1,3-diyl (9Z,9′Z,12Z,12′Z)-bis(octadeca-9,12-dienoate)] |  | 6.32 |  |  |  | 68.58 |  | Encapsulation (%) [1, 8]: 99%; Num Ave Size (nm) [3, 8]: 100.4 nm; PDI [3, 8]: 0.051; Z-Ave Size (nm) [3, 8]: 122.30 nm
CCCCC/C=C\C/C=C\CCCCCCCC(=O)OCC(COC(=O)CCCCCCC/C=C\C/C=C\CCCCC)OC(=O)CCC(CCCCC)OC(=O)NCCN(C)CC (centres unmarked) [Compound 69, 2-((4-(((2-(ethyl(methyl)amino)ethyl)carbamoyl)oxy)nonanoyl)oxy)propane-1,3-diyl (9Z,9′Z,12Z,12′Z)-bis(octadeca-9,12-dienoate)] |  | 6.44 |  |  |  | 54 | 12 | Encapsulation (%) [1, 9]: 96%; Num Ave Size (nm) [3, 9]: 88.76 nm; PDI [3, 9]: 0.017; Z-Ave Size (nm) [3, 9]: 108.90 nm
CCCCC/C=C\C/C=C\CCCCCCCC(=O)OCC(COC(=O)CCCCCCC/C=C\C/C=C\CCCCC)OC(=O)CCC(CCCCCC)OC(=O)NCCN1CCC1 (centres unmarked) [Compound 77, 2-((4-(((2-(azetidin-1-yl)ethyl)carbamoyl)oxy)decanoyl)oxy)propane-1,3-diyl (9Z,9′Z,12Z,12′Z)-bis(octadeca-9,12-dienoate)] |  | 7.23 |  |  |  | 68.3 | 80.6 | Encapsulation (%) [1, 10]: 98%; Num Ave Size (nm) [3, 10]: 78 nm; PDI [3, 10]: 0.08; Z-Ave Size (nm) [3, 10]: 104.00 nm
CCCCC/C=C\C/C=C\CCCCCCCC(=O)OCC(COC(=O)CCCCCCC/C=C\C/C=C\CCCCC)OC(=O)CC[C@@H](CCCCCC)OC(=O)NCCN1CCCC1 [Compound 90, 2-(((R)-4-(((2-(pyrrolidin-1-yl)ethyl)carbamoyl)oxy)decanoyl)oxy)propane-1,3-diyl (9Z,9′Z,12Z,12′Z)-bis(octadeca-9,12-dienoate)] | 98 | 6.8 | 81 | 0.02 | 99 | 59.95 |  | 
CCCCC/C=C\C/C=C\CCCCCCCC(=O)OCC(COC(=O)CCCCCCC/C=C\C/C=C\CCCCC)OC(=O)CCC(CCCCCCCCCC)OC(=O)NCC1CCCN1C (centres unmarked) [Compound 65, 2-((4-((((1-methylpyrrolidin-2-yl)methyl)carbamoyl)oxy)tetradecanoyl)oxy)propane-1,3-diyl (9Z,9′Z,12Z,12′Z)-bis(octadeca-9,12-dienoate)] |  | 6.37 |  |  |  | 119.84 | 99.22 | Encapsulation (%) [1, 5]: 99%; Num Ave Size (nm) [3, 5]: 52.04 nm; PDI [3, 5]: 0.056; Z-Ave Size (nm) [3, 5]: 69.67 nm
